The values that follow come from patent US11261209B2, “Enhanced coupling of stereodefined oxazaphospholidine phosphoramidite monomers to nucleoside or oligonucleotide” (Roche Innovation Center Copenhagen A/S, priority 2016, dated 2022).

“Also recorded” adds a separate entry of the source.

Data set [1] can be described thus: Solubility of oxazaphospholidine phosphoramidite monomers in solvent, visual examination. As to conditions: for Soluble after: 0 h MeCN + 2.5% pyridine / Soluble after: 0 h MeCN / Soluble after: 24 h MeCN + 2.5% pyridine / Soluble after: 24 h MeCN: 0.013 mmol amidite in 0.13 mL, room temperature; for Solubility after 24 hours in MeCN with addition of pyridine: MeCN with addition of pyridine (2.5%). The data set is classed as physicochemical. The procedure:
To a 1.5 mL vial was added 0.013 mmol of amidite after which the solid material was dissolved in 0.13 mL of solvent. Hereafter, the vial was capped, vortexed, and finally left at room temperature for 24 hours. Then, the dissolved material was visually examined regarding the solubility (FIG. 1). If the solution appeared cloudy or otherwise non-homogenous the solubility was set to “no”. If the solution appeared completely homogenous the solubility was set to “yes” (examination repeated after 24 hours).
Solubility of the following monomers was determined as per example 7.

The nature of data set [2]: Stability of amidite in solution by HPLC-MS (UV 254 nm, normalised to 0 hours). Format: physicochemical. On the procedure: Stability Determination Method: To complete the analysis the stability of the amidite was investigated using an Agilent 1100 series HPLC-MS with a gradient from 80% A (1% NH4OH in H2O) to 100% B (20% A in MeCN) and a Waters Xterra MS C18 2.1×100 mm column. The mass and UV peak of the mother compound was identified at 0 hours and at 24 hours. Hereafter, the relative stability compared to other by-products was reported by integrating the UV chromatogram (254 nm) and normalizing the area to the chromatogram recorded at 0 hours (FIG. 2).
To a 1.5 mL vial was added 0.013 mmol of amidite after which the solid material was dissolved in 0.13 mL of solvent (with and without Et3N, approximately 5-10 eq). Hereafter, the vial was capped, vortexed, and finally left at room temperature for 24 hours. To investigate the stability of the amidite an Agilent 1100 series HPLC-MS with a gradient from 80% A (1% NH4OH in H2O) to 100% B (20% A in MeCN) and a Waters Xterra MS C18 2.1×100 mm column was used. The mass and UV peak of the mother compound was identified at 0 hours and at 24 hours. Hereafter, the relative stability compared to other by-products was reported. This was again repeated after 48 hours.

For the compound `COc1ccc(C(OCC23COC(C(n4cc(C)c(=O)[nH]c4=O)O2)C3OP2OC(c3ccccc3)C3CCCN32)(c2ccccc2)c2ccc(OC)cc2)cc1` [D-LNA T], in data set [1], the “Soluble after: 0 h MeCN + 2.5% pyridine” value is recorded as “Yes” and the “Soluble after: 24 h MeCN + 2.5% pyridine” value is listed as “Yes”. Besides, in data set [1] (MeCN), the “Soluble after: 0 h MeCN” value is recorded as “Yes” and the “Soluble after: 24 h MeCN” value was “Yes”.
Turning to `COc1ccc(C(OC[C@@]23CO[C@@H]([C@H](n4cnc5c(=O)[nH]c(NC(=O)C(C)C)nc54)O2)[C@@H]3O[P@]2O[C@H](c3ccccc3)[C@@H]3CCCN32)(c2ccccc2)c2ccc(OC)cc2)cc1` [L-LNA-G-iBu], in data set [1], the “Soluble after: 0 h MeCN + 2.5% pyridine” value was “Yes” and the “Soluble after: 24 h MeCN + 2.5% pyridine” value is recorded as “Yes”. In addition, the “Soluble after: 0 h MeCN” value in data set [1] (MeCN) is “Yes”. The “Solubility in all solvents investigated” value in data set [1] (all solvents investigated (12 different)) was “soluble”.
`COc1ccc(C(OCC23COC(C(n4cnc5c(=O)[nH]c(N=CN(C)C)nc54)O2)C3OP2OC(c3ccccc3)C3CCCN32)(c2ccccc2)c2ccc(OC)cc2)cc1` [L-LNA G-DMF]: in data set [1], the “Soluble after: 0 h MeCN + 2.5% pyridine” value was “No” and the “Soluble after: 24 h MeCN + 2.5% pyridine” value is “No”. In data set [1] (MeCN), the “Soluble after: 0 h MeCN” value is “No” and the “Soluble after: 24 h MeCN” value is recorded as “No”. Further, the “Solubility in most solvents” value in data set [1] (MeCN, MeCN:DCE, MeCN:Tol, MeCN:acetone, Dioxane, and THF) is listed as “unsoluble”. The “Solubility in remaining solvents” value in data set [1] (MeCN:DCM, DMF, DMSO, NMP, DCM, DCE, and Toluene) is “soluble”. For the same compound, in data set [1] (acetonitrile solvents), the “Solubility in acetonitrile solvents” value is given as “poorly soluble”. Besides, the “Amidite left after 24 hours” value in data set [2] (DCM (best solvent), 24 hours, room temperature) turned out to be 10%. In addition, the “Stability in the solvents where the monomer is soluble” value in data set [2] (MeCN:DCM, DMF, DMSO, NMP, DCM, DCE, and Toluene, 24 hours) was “tremendous instability”.
Consider `COc1ccc(C(OCC23COC(C(n4cnc5c(=O)[nH]c(N=CN(C)C)nc54)O2)C3OP2OC(c3ccccc3)C3CCCN32)(c2ccccc2)c2ccc(OC)cc2)cc1` [D-LNA G], for which, in data set [1], the “Soluble after: 0 h MeCN + 2.5% pyridine” value is reported as “Yes” and the “Soluble after: 24 h MeCN + 2.5% pyridine” value is “Yes”. In addition, in data set [1] (MeCN), the “Soluble after: 0 h MeCN” value is reported as “Yes” and the “Soluble after: 24 h MeCN” value is “Yes”.
Take `COc1ccc(C(OC[C@H]2O[C@@H](n3cc(C)c(=O)[nH]c3=O)C[C@@H]2O[P@@]2O[C@H](c3ccccc3)[C@@H]3CCCN32)(c2ccccc2)c2ccc(OC)cc2)cc1` [L-DNA T]: in data set [1], the “Soluble after: 0 h MeCN + 2.5% pyridine” value is listed as “Yes” and the “Soluble after: 24 h MeCN + 2.5% pyridine” value was “Yes”. Further, in data set [1] (MeCN), the “Soluble after: 0 h MeCN” value is on record as “Yes” and the “Soluble after: 24 h MeCN” value is on record as “No”.
For the compound `COc1ccc(C(OC[C@H]2O[C@@H](n3ccc(NC(C)=O)nc3=O)C[C@@H]2O[P@]2O[C@@H](c3ccccc3)[C@H]3CCCN32)(c2ccccc2)c2ccc(OC)cc2)cc1` [D-DNA C], in data set [1], the “Soluble after: 0 h MeCN + 2.5% pyridine” value was “Yes” and the “Soluble after: 24 h MeCN + 2.5% pyridine” value is recorded as “Yes”. Moreover, in data set [1] (MeCN), the “Soluble after: 0 h MeCN” value is “Yes” and the “Soluble after: 24 h MeCN” value is given as “No”.
With `COc1ccc(C(OC[C@H]2O[C@@H](n3cc(C)c(=O)[nH]c3=O)C[C@@H]2O[P@]2O[C@@H](c3ccccc3)[C@H]3CCCN32)(c2ccccc2)c2ccc(OC)cc2)cc1` [D-DNA T], in data set [1], the “Soluble after: 0 h MeCN + 2.5% pyridine” value is “Yes” and the “Soluble after: 24 h MeCN + 2.5% pyridine” value is recorded as “Yes”. In addition, in data set [1] (MeCN), the “Soluble after: 0 h MeCN” value is given as “Yes” and the “Soluble after: 24 h MeCN” value is “No”.
`COc1ccc(C(OCC23COC(C(n4cnc5c(NC(=O)c6ccccc6)ncnc54)O2)C3OP2OC(c3ccccc3)C3CCCN32)(c2ccccc2)c2ccc(OC)cc2)cc1` [L-LNA A]: in data set [2] (MeCN + Et3N approximately 5-10 eq, 24 hours), the “Stability in MeCN with Et3N after 24 hours” value was “completely stable”. Further, in data set [2] (MeCN + Et3N approximately 5-10 eq, 48 hours), the “Stability in MeCN with Et3N after 48 hours” value is “majority of the L-LNA A is preserved”. Besides, the “Stability in MeCN after 24 hours” value in data set [2] (MeCN only, 24 hours, room temperature) is given as “most of the L-LNA A was degraded”. Moreover, the “Stability in MeCN after 48 hours” value in data set [2] (MeCN only, 48 hours, room temperature) is given as “completely degraded”.
For the compound `COc1ccc(C(OC[C@H]2O[C@@H](n3cnc4c(NC(=O)c5ccccc5)ncnc43)C[C@@H]2O[P@@]2O[C@H](c3ccccc3)[C@@H]3CCCN32)(c2ccccc2)c2ccc(OC)cc2)cc1` [L-DNA A], in data set [1], the “Soluble after: 0 h MeCN + 2.5% pyridine” value is “Yes”, the “Soluble after: 24 h MeCN + 2.5% pyridine” value was “Yes” and the “Solubility after 24 hours in MeCN with addition of pyridine” value (“Solubility after 24 hours … of pyridine” below) is reported as “solubility of the monomer is preserved; also recorded: kept in solution”. For the same compound, in data set [1] (MeCN), the “Soluble after: 0 h MeCN” value is listed as “Yes”, the “Soluble after: 24 h MeCN” value is reported as “No” and the “Solubility after 24 hours in MeCN” value is “not soluble; also recorded: not sufficient to keep the monomer in solution”.
Take `COc1ccc(C(OC[C@H]2O[C@@H](n3cnc4c(=O)[nH]c(/N=C/N(C)C)nc43)C[C@@H]2O[P@]2O[C@@H](c3ccccc3)[C@H]3CCCN32)(c2ccccc2)c2ccc(OC)cc2)cc1` [D-DNA G]: in data set [1], the “Soluble after: 0 h MeCN + 2.5% pyridine” value is recorded as “Yes” and the “Soluble after: 24 h MeCN + 2.5% pyridine” value is “Yes”. For the same compound, in data set [1] (MeCN), the “Soluble after: 0 h MeCN” value was “Yes” and the “Soluble after: 24 h MeCN” value is given as “No”.
With `COc1ccc(C(OCC23COC(C(n4cnc5c(NC(=O)c6ccccc6)ncnc54)O2)C3OP2OC(c3ccccc3)C3CCCN32)(c2ccccc2)c2ccc(OC)cc2)cc1` [D-LNA A], in data set [1], the “Soluble after: 0 h MeCN + 2.5% pyridine” value is recorded as “Yes”, the “Soluble after: 24 h MeCN + 2.5% pyridine” value is on record as “Yes” and the “Solubility after 24 hours … of pyridine” value is “solubility of the monomer is preserved”. In data set [1] (MeCN), the “Soluble after: 0 h MeCN” value was “Yes”, the “Soluble after: 24 h MeCN” value is “No” and the “Solubility after 24 hours in MeCN” value is recorded as “not soluble”.
For the compound `COc1ccc(C(OC[C@H]2O[C@@H](n3cnc4c(NC(=O)c5ccccc5)ncnc43)C[C@@H]2O[P@]2O[C@@H](c3ccccc3)[C@H]3CCCN32)(c2ccccc2)c2ccc(OC)cc2)cc1` [D-DNA A], in data set [1], the “Soluble after: 0 h MeCN + 2.5% pyridine” value was “Yes”, the “Soluble after: 24 h MeCN + 2.5% pyridine” value is on record as “Yes” and the “Solubility after 24 hours … of pyridine” value was “solubility of the monomer is preserved”. Moreover, in data set [1] (MeCN), the “Soluble after: 0 h MeCN” value is “Yes”, the “Soluble after: 24 h MeCN” value is given as “No” and the “Solubility after 24 hours in MeCN” value was “not soluble”.
For `COc1ccc(C(OC[C@H]2O[C@@H](n3cnc4c(=O)[nH]c(/N=C/N(C)C)nc43)C[C@@H]2O[P@@]2O[C@H](c3ccccc3)[C@@H]3CCCN32)(c2ccccc2)c2ccc(OC)cc2)cc1` [L-DNA G], in data set [1], the “Soluble after: 0 h MeCN + 2.5% pyridine” value is listed as “Yes” and the “Soluble after: 24 h MeCN + 2.5% pyridine” value is given as “Yes”. For the same compound, in data set [1] (MeCN), the “Soluble after: 0 h MeCN” value was “Yes” and the “Soluble after: 24 h MeCN” value is “No”.
For the compound `COc1ccc(C(OC[C@H]2O[C@@H](n3ccc(NC(C)=O)nc3=O)C[C@@H]2O[P@@]2O[C@H](c3ccccc3)[C@@H]3CCCN32)(c2ccccc2)c2ccc(OC)cc2)cc1` [L-DNA C], in data set [1], the “Soluble after: 0 h MeCN + 2.5% pyridine” value is “Yes” and the “Soluble after: 24 h MeCN + 2.5% pyridine” value was “Yes”. In data set [1] (MeCN), the “Soluble after: 0 h MeCN” value was “Yes” and the “Soluble after: 24 h MeCN” value was “No”.
